Measured values reported in patent US10526327B2, “Histone demethylase inhibitors” (CELGENE QUANTICEL RESEARCH, INC., priority 2013, dated 2020).

How the values were obtained:
[1] = target: T1, Jarid1A (Homo sapiens, UniProt P29375); assay: Jarid1A in vitro enzyme inhibition assay (TR-FRET); format: biochemical
T1 construct: purchased BPS Bioscience 50110
T1 sequence (P29375 1-1090): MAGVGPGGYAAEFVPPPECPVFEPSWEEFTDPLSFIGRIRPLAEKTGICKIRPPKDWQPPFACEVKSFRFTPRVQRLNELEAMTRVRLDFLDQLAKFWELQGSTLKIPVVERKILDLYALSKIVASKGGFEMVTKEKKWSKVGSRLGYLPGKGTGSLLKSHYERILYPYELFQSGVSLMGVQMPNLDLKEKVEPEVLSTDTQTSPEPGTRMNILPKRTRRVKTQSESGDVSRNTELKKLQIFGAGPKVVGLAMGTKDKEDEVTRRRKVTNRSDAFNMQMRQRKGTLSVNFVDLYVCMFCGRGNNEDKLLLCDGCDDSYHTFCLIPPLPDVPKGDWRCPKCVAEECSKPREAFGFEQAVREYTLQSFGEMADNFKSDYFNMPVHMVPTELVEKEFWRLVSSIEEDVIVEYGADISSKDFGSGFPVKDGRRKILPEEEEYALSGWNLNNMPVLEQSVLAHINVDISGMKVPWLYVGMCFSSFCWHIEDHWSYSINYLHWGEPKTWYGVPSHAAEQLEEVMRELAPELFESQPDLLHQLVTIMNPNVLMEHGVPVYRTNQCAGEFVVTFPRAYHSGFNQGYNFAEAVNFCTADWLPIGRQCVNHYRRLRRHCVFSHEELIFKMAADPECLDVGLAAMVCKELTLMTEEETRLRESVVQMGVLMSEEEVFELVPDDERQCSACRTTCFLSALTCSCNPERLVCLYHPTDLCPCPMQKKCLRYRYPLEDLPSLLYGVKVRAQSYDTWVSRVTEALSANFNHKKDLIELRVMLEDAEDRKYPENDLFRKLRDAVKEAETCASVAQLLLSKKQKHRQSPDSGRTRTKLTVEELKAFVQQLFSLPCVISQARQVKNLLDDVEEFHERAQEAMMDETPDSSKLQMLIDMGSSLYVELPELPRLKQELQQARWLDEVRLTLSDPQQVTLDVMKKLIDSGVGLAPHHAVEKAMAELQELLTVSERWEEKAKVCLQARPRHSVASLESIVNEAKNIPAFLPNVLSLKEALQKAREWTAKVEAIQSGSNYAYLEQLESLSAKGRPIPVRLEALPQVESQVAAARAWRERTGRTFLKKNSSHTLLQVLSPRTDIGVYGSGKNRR
How it was run: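 Demethylation of 300 nM biotin-H3K4me3 peptide by 1 nM baculovirus-expressed Jarid1A (aa 1–1090) with 2 μM α-ketoglutarate, Fe(II) and ascorbate, pH 7.3, 30 min at room temperature. Stopped with EDTA; H3K4me1-2 product detected by TR-FRET (Eu anti-H3K4me1-2/streptavidin-APC). IC50 fitted from 665/615 ratio over 11-point dilutions.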

[2] = test system: KDM5A/B; assay: In vitro cell-based assay: immuno-blot quantification of tri-methyl H3K4 in ZR-75-1 breast cancer cells; details: 72 hours, tri-methyl H3K4 level relative to GAPDH, percent of DMSO, read-out: Cellular IC50
How it was run: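 ZR-75-1 breast cancer cells treated 72 h with 11-point compound dilutions (1250 μM to 10 nM). H3K4me3 quantified by infrared immunoblot densitometry, normalized to GAPDH and expressed as percent of DMSO control; relative IC50 from curve fit.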

Structure (SMILES)	IC50 [1] [nM]	IC50 [2] [nM]
O=S(=O)(C1CC1)N1CC[C@H](n2cc(Oc3nc(O)c4ccncc4n3)cn2)C1 [Example 137, 2-({1-[(3S)-1-(cyclopropanesulfonyl)pyrrolidin-3-yl]-1H-pyrazol-4-yl}oxy)pyrido[3,4-d]pyrimidin-4-ol]	≤ 100	100 to 1000
O=S(=O)(c1ccccc1)N1CC[C@H](n2cc(Oc3nc(O)c4ccncc4n3)cn2)C1 [Example 138, 2-({1-[(3S)-1-(benzenesulfonyl)pyrrolidin-3-yl]-1H-pyrazol-4-yl}oxy)pyrido[3,4-d]pyrimidin-4-ol]	≤ 100	1000 to 10000
CC(=O)N1CC[C@H](n2cc(Oc3nc(O)c4ccncc4n3)cn2)C1 [Example 139, 1-[(3S)-3-[4-({4-hydroxypyrido[3,4-d]pyrimidin-2-yl}oxy)-1H-pyrazol-1-yl]pyrrolidin-1-yl]ethan-1-one]	≤ 100	> 10000
N#CCC(=O)N1CC[C@H](n2cc(Oc3nc(O)c4ccncc4n3)cn2)C1 [Example 140, 3-[(3S)-3-[4-({4-hydroxypyrido[3,4-d]pyrimidin-2-yl}oxy)-1H-pyrazol-1-yl]pyrrolidin-1-yl]-3-oxopropanenitrile]	≤ 100	> 10000
O=C(C1CC1)N1CC[C@H](n2cc(Oc3nc(O)c4ccncc4n3)cn2)C1 [Example 141, 2-({1-[(3S)-1-cyclopropanecarbonylpyrrolidin-3-yl]-1H-pyrazol-4-yl}oxy)pyrido[3,4-d]pyrimidin-4-ol]	≤ 100	> 10000
O=C(c1ccccc1)N1CC[C@H](n2cc(Oc3nc(O)c4ccncc4n3)cn2)C1 [Example 142, 2-({1-[(3S)-1-benzoylpyrrolidin-3-yl]-1H-pyrazol-4-yl}oxy)pyrido[3,4-d]pyrimidin-4-ol]	≤ 100	> 10000
Oc1nc(Oc2cnn([C@H]3CCN(c4ccccc4)C3)c2)nc2cnccc12 [Example 145, 2-({1-[(3S)-1-phenylpyrrolidin-3-yl]-1H-pyrazol-4-yl}oxy)pyrido[3,4-d]pyrimidin-4-ol]	≤ 100	1000 to 10000
Oc1nc(Oc2cnn([C@H]3CCN(c4ccc(F)cc4)C3)c2)nc2cnccc12 [Example 146, 2-({1-[(3S)-1-(4-fluorophenyl)pyrrolidin-3-yl]-1H-pyrazol-4-yl}oxy)pyrido[3,4-d]pyrimidin-4-ol]	≤ 100	1000 to 10000
Oc1nc(Oc2cnn([C@H]3CCN(c4ccccc4F)C3)c2)nc2cnccc12 [Example 147, 2-({1-[(3S)-1-(2-fluorophenyl)pyrrolidin-3-yl]-1H-pyrazol-4-yl}oxy)pyrido[3,4-d]pyrimidin-4-ol]	≤ 100	1000 to 10000
Oc1nc(Oc2cnn([C@H]3CCN(c4ccc(Cl)cc4)C3)c2)nc2cnccc12 [Example 148, 2-({1-[(3S)-1-(4-chlorophenyl)pyrrolidin-3-yl]-1H-pyrazol-4-yl}oxy)pyrido[3,4-d]pyrimidin-4-ol]	≤ 100	1000 to 10000
CCS(=O)(=O)N1CCC[C@@H](n2cc(Oc3nc(O)c4ccncc4n3)cn2)C1 [Example 150, 2-({1-[(3R)-1-(ethanesulfonyl)piperidin-3-yl]-1H-pyrazol-4-yl}oxy)pyrido[3,4-d]pyrimidin-4-ol]	≤ 100	100 to 1000
CC(=O)N1CCC[C@@H](n2cc(Oc3nc(O)c4ccncc4n3)cn2)C1 [Example 153, 1-[(3R)-3-[4-({4-hydroxypyrido[3,4-d]pyrimidin-2-yl}oxy)-1H-pyrazol-1-yl]piperidin-1-yl]ethan-1-one]	≤ 100	1000 to 10000
N#CCC(=O)N1CCC[C@@H](n2cc(Oc3nc(O)c4ccncc4n3)cn2)C1 [Example 154, 3-[(3R)-3-[4-({4-hydroxypyrido[3,4-d]pyrimidin-2-yl}oxy)-1H-pyrazol-1-yl]piperidin-1-yl]-3-oxopropanenitrile]	≤ 100	> 10000
O=C(CO)N1CC[C@H](n2cc(Oc3nc(O)c4ccncc4n3)cn2)C1 [Example 155, 2-hydroxy-1-[(3S)-3-[4-({4-hydroxypyrido[3,4-d]pyrimidin-2-yl}oxy)-1H-pyrazol-1-yl]pyrrolidin-1-yl]ethan-1-one]	≤ 100	1000 to 10000
O=C(C1CC1)N1CCC[C@@H](n2cc(Oc3nc(O)c4ccncc4n3)cn2)C1 [Example 156, 2-({1-[(3R)-1-cyclopropanecarbonylpiperidin-3-yl]-1H-pyrazol-4-yl}oxy)pyrido[3,4-d]pyrimidin-4-ol]	≤ 100	> 10000
O=C(c1ccccc1)N1CCC[C@@H](n2cc(Oc3nc(O)c4ccncc4n3)cn2)C1 [Example 157, 2-({1-[(3R)-1-benzoylpiperidin-3-yl]-1H-pyrazol-4-yl}oxy)pyrido[3,4-d]pyrimidin-4-ol]	≤ 100	1000 to 10000
Oc1nc(Oc2cnn([C@@H]3CCCN(Cc4ccccc4)C3)c2)nc2cnccc12 [Example 158, 2-({1-[(3R)-1-benzylpiperidin-3-yl]-1H-pyrazol-4-yl}oxy)pyrido[3,4-d]pyrimidin-4-ol]	≤ 100	100 to 1000
Oc1nc(Oc2cnn([C@@H]3CCCN(c4ccc(F)cc4)C3)c2)nc2cnccc12 [Example 159, 2-({1-[(3R)-1-(4-fluorophenyl)piperidin-3-yl]-1H-pyrazol-4-yl}oxy)pyrido[3,4-d]pyrimidin-4-ol]	≤ 100	1000 to 10000
CCS(=O)(=O)N1CCC[C@H](n2cc(Oc3nc(O)c4ccncc4n3)cn2)C1 [Example 161, 2-({1-[(3S)-1-(ethanesulfonyl)piperidin-3-yl]-1H-pyrazol-4-yl}oxy)pyrido[3,4-d]pyrimidin-4-ol]	≤ 100	100 to 1000
O=S(=O)(C1CC1)N1CCC[C@H](n2cc(Oc3nc(O)c4ccncc4n3)cn2)C1 [Example 162, 2-({1-[(3S)-1-(cyclopropanesulfonyl)piperidin-3-yl]-1H-pyrazol-4-yl}oxy)pyrido[3,4-d]pyrimidin-4-ol]	≤ 100	100 to 1000
O=S(=O)(c1ccccc1)N1CCC[C@H](n2cc(Oc3nc(O)c4ccncc4n3)cn2)C1 [Example 163, 2-({1-[(3S)-1-(benzenesulfonyl)piperidin-3-yl]-1H-pyrazol-4-yl}oxy)pyrido[3,4-d]pyrimidin-4-ol]	≤ 100	100 to 1000
CC(=O)N1CCC[C@H](n2cc(Oc3nc(O)c4ccncc4n3)cn2)C1 [Example 164, 1-[(3S)-3-[4-({4-hydroxypyrido[3,4-d]pyrimidin-2-yl}oxy)-1H-pyrazol-1-yl]piperidin-1-yl]ethan-1-one]	≤ 100	1000 to 10000
O=C(C1CC1)N1CCC[C@H](n2cc(Oc3nc(O)c4ccncc4n3)cn2)C1 [Example 165, 2-({1-[(3S)-1-cyclopropanecarbonylpiperidin-3-yl]-1H-pyrazol-4-yl}oxy)pyrido[3,4-d]pyrimidin-4-ol]	≤ 100	1000 to 10000
N#CCC(=O)N1CCC[C@H](n2cc(Oc3nc(O)c4ccncc4n3)cn2)C1 [Example 166, 3-[(3S)-3-[4-({4-hydroxypyrido[3,4-d]pyrimidin-2-yl}oxy)-1H-pyrazol-1-yl]piperidin-1-yl]-3-oxopropanenitrile]	≤ 100	> 10000
O=C(c1ccccc1)N1CCC[C@H](n2cc(Oc3nc(O)c4ccncc4n3)cn2)C1 [Example 167, 2-({1-[(3S)-1-benzoylpiperidin-3-yl]-1H-pyrazol-4-yl}oxy)pyrido[3,4-d]pyrimidin-4-ol]	≤ 100	1000 to 10000
Oc1nc(Oc2cnn([C@H]3CCCN(Cc4ccccc4)C3)c2)nc2cnccc12 [Example 168, 2-({1-[(3S)-1-benzylpiperidin-3-yl]-1H-pyrazol-4-yl}oxy)pyrido[3,4-d]pyrimidin-4-ol]	≤ 100	1000 to 10000
